Test results from the supplement of paper PMC10627819.

Experiments:
[1] = test system: B. subtilis 168; assay: fitness (endpoint OD595 vs no drug) (fraction); higher = more growth
Procedure, shortened: (§1)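 Bacterial fitness was scored as optical density at the stationary-phase transition relative to the robust mean of no-drug control wells. Scores are capped at 1. The growth data were OD595 readings every 30 min for 14 h at 37 °C, background-subtracted against the first reading, from 384-well plates inoculated at OD595 0.01 in TSB, LB Lennox or CY.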

[2] = test system: S. aureus DSM 20231; assay: as above
Procedure, shortened: as §1

[3] = test system: S. aureus Newman; assay: as above
Procedure, shortened: as §1

[4] = test system: B. subtilis 168; assay: Bliss interaction score (quartile over a dose matrix) (fitness difference); higher = more antagonism (negative = synergy)
Procedure, shortened: (§2)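 The Bliss score takes observed fitness and subtracts the expected fitness, calculated as a product of single-drug fitness values. Those single-drug values were inferred from the combination data. Fitness is OD595 at entry into stationary phase divided by the plate's robust no-drug mean, capped at 1, and the score is summarised by quartiles across technical, biological and donor/recipient replicates.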

[5] = test system: S. aureus DSM 20231; assay: as above
Procedure, shortened: as §2

[6] = test system: S. aureus Newman; assay: as above
Procedure, shortened: as §2

[7] = test system: S. pneumoniae D39V; assay: as above
Procedure, shortened: as §2

[8] = test system: S. pneumoniae D39V; assay: fitness (endpoint OD595 vs no drug) (fraction); higher = more growth
Procedure, shortened: as §1
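For Bliss interaction score (quartile over a dose matrix) in this document: first quartile when negative (synergy) and third quartile when positive (antagonism).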
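For fitness (endpoint OD595 vs no drug) in this document: OD595 on entry to stationary phase over no-drug wells; at most 1.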

CC[C@H]1OC(=O)[C@H](C)[C@@H](O[C@H]2C[C@@](C)(OC)[C@@H](O)[C@H](C)O2)[C@H](C)[C@@H](O[C@@H]2O[C@H](C)C[C@H](N(C)C)[C@H]2O)[C@](C)(O)C[C@@H](C)CN(C)[C@H](C)[C@@H](O)[C@]1(C)O [Azithromycin] + COc1cccc2c1C(=O)c1c(O)c3c(c(O)c1C2=O)C[C@@](O)(C(=O)CO)C[C@@H]3O[C@H]1C[C@H](N)[C@H](O)[C@H](C)O1 [Doxorubicin]
fitness
Conditions | partner 0.625 µg/mL | partner 1.25 µg/mL | partner 2.5 µg/mL
[1], first compound 0.25 µg/mL | 0.964 | 0.92 | 0.791
[1], first compound 0.5 µg/mL | 0.879 | 0.847 | 0.767
[2], first compound 0.125 µg/mL | 0.811 | 0.794 | 0.781
[2], first compound 0.25 µg/mL | 0.811 | 0.824 | 0.778
[2], first compound 0.5 µg/mL | 0.62 | 0.672 | 0.569
[3], first compound 0.125 µg/mL | 0.777 | 0.775 | 0.735
[3], first compound 0.25 µg/mL | 0.827 | 0.779 | 0.77
[3], first compound 0.5 µg/mL | 0.659 | 0.665 | 0.561

[1], first compound 2 µg/mL, one replicate
Conditions | fitness
partner 0.625 µg/mL | 0.358
partner 1.25 µg/mL | 0.176
partner 2.5 µg/mL | 0.0297

Conditions | Bliss interaction score
[4] | 0.164
[5] | 0.115
[6] | 0.0458
[7] | -0.0571

CC[C@H]1OC(=O)[C@H](C)[C@@H](O[C@H]2C[C@@](C)(OC)[C@@H](O)[C@H](C)O2)[C@H](C)[C@@H](O[C@@H]2O[C@H](C)C[C@H](N(C)C)[C@H]2O)[C@](C)(O)C[C@@H](C)CN(C)[C@H](C)[C@@H](O)[C@]1(C)O [Azithromycin] + CCC[C@@H]1C[C@@H](C(=O)N[C@@H]([C@H]2O[C@H](SC)[C@H](O)[C@@H](O)[C@H]2O)[C@H](C)Cl)N(C)C1 [Clindamycin]
fitness
Conditions | first compound 0.125 µg/mL | first compound 0.25 µg/mL | first compound 0.5 µg/mL | first compound 1 µg/mL
[1], partner 0.0625 µg/mL | – | 0.632 | 0.554 | –
[1], partner 0.125 µg/mL | – | 0.388 | 0.379 | –
[1], partner 0.25 µg/mL | – | 0.367 | 0.299 | 0.0793
[2], partner 0.0312 µg/mL | – | – | 0.142 | –
[2], partner 0.0625 µg/mL | – | – | 0.0702 | –
[2], partner 0.125 µg/mL | 0.0728 | 0.0466 | 0.0384 | –
[3], partner 0.0312 µg/mL | 0.693 | – | 0.481 | –
[3], partner 0.125 µg/mL | – | 0.113 | 0.0923 | –

fitness, [1], one replicate
Conditions | first compound 0.5 µg/mL | first compound 1 µg/mL | first compound 2 µg/mL
partner 0.0039 µg/mL | 0.945 | 0.922 | 0.516
partner 0.0078 µg/mL | 0.84 | 0.776 | 0.186
partner 0.0156 µg/mL | 0.776 | 0.715 | 0.23

Conditions | Bliss interaction score
[4] | 0.109
[5] | -0.0395
[6] | -0.0621
[7] | 0.0737

CN(N=O)C(=O)N[C@@H](C=O)[C@@H](O)[C@H](O)[C@H](O)CO [Streptozotocin] + Cn1nnc(-c2ccc(-c3ccc(N4C[C@H](CO)OC4=O)cc3F)cn2)n1 [Tedizolid]
fitness
Conditions | partner 0.03125 µg/mL | partner 0.0625 µg/mL | partner 0.125 µg/mL | partner 0.25 µg/mL
[2], first compound 0.15 µg/mL | – | 0.799 | 0.553 | 0.207
[2], first compound 0.3 µg/mL | – | 0.833 | 0.58 | 0.195
[2], first compound 0.6 µg/mL | – | 0.701 | 0.5 | 0.152
[3], first compound 0.15 µg/mL | – | 0.822 | 0.737 | 0.304
[3], first compound 0.3 µg/mL | – | 0.638 | – | 0.297
[3], first compound 0.6 µg/mL | – | 0.471 | 0.409 | 0.151
[8], first compound 1.2 µg/mL | 0.921 | 0.923 | 0.809 | –
[8], first compound 2.4 µg/mL | 0.921 | 0.908 | 0.828 | –
[8], first compound 4.8 µg/mL | 0.932 | 0.868 | 0.87 | –

fitness, [8], one replicate
Conditions | first compound 1.2 µg/mL | first compound 2.4 µg/mL | first compound 4.8 µg/mL
partner 0.25 µg/mL | 0.598 | 0.653 | 0.791
partner 0.5 µg/mL | 0.426 | 0.464 | 0.547

Conditions | Bliss interaction score
[4] | -0.0702
[5] | 0.0552
[6] | -0.0487
[7] | -0.075

Cc1onc(-c2ccccc2)c1C(=O)N[C@@H]1C(=O)N2[C@@H]1SC(C)(C)[C@@H]2C(=O)O [Oxacillin] + Cn1nnc(-c2ccc(-c3ccc(N4C[C@H](CO)OC4=O)cc3F)cn2)n1 [Tedizolid]
fitness
Conditions | partner 0.03125 µg/mL | partner 0.0625 µg/mL | partner 0.125 µg/mL | partner 0.25 µg/mL | partner 0.5 µg/mL
[2], first compound 0.0156 µg/mL | – | 0.791 | 0.731 | 0.312 | –
[2], first compound 0.0312 µg/mL | – | 0.687 | 0.593 | 0.279 | –
[2], first compound 0.0625 µg/mL | – | 0.51 | 0.503 | 0.261 | –
[3], first compound 0.0156 µg/mL | – | 0.746 | 0.673 | 0.425 | –
[3], first compound 0.0312 µg/mL | – | 0.693 | 0.579 | 0.24 | –
[3], first compound 0.0625 µg/mL | – | 0.562 | 0.481 | 0.159 | –
[8], first compound 0.01 µg/mL | 0.974 | 0.931 | 0.851 | 0.683 | 0.336
[8], first compound 0.02 µg/mL | 0.935 | 0.933 | 0.835 | 0.644 | 0.39
[8], first compound 0.04 µg/mL | – | 0.728 | 0.614 | 0.468 | 0.157

Conditions | Bliss interaction score
[4] | -0.0469
[5] | 0.0921
[6] | -0.0682
[7] | 0.0979
